Assay results reported in article PMC10482825 (Scientific Reports, 2023).
Several values for one entry are separate records, joined by “and”; a condition that tells them apart may be missing. Equal values may be shown once.

What was measured:
[1] = tested on: MRSA mature biofilm; experiment: Antibiofilm microtiter plate assay (mature biofilm, crystal violet); assay type: cell-based, Methicillin-resistant Staphylococcus aureus (ATCC, BAA-41); conditions: absorbance 600 nm, mean ± SD
Description: The antibiofilm activities of the selected cryptides against S. enterica and MRSA mature biofilms were examined by microtiter plate assay as previously described, with slight modification. During the mid-logarithmic phase, S. enterica and MRSA were suspended at the density of 1.7 × 10^8 CFU/ml in MHB. Then 100 µl of each bacterial suspension was dispensed into a vinyl 96 U-shaped-well plate and incubated overnight at 37 °C. The mature biofilms were washed with 10 mM Tris–HCl containing 5 mM D-glucose at pH 7.4 and treated for 8 h with 100 µl of two-fold serially diluted cryptides, under the same incubation conditions. A sterile MHB medium was used as the positive control while an equivalent volume of acidified water was used to treat the negative controls. The treated biofilms were washed twice with the same washing buffer and stained with 0.1% crystal violet for 15 min followed by rinsing with sterile distilled water twice and then dried for 30 min at 37 °C. The stain was dissolved with 33% acetic acid and transferred to an optically clear 96-well flat bottom plate which was then measured at 600 nm.
Table S.4 Antibiofilm activities of the selected Cryptides against S. enterica and MRSA. Microbial cells were suspended at 1.7 X 10^8 CFU/ml density, during the mid-logarithmic phase in MHB. Then, 96 U-shaped -well plates were inoculated with 100 µl of microbial suspension and incubated for 48 h at 37 °C. The formed biofilms were washed with 10 mM Tris-HCl and treated with 100 µl of different concentrations of each peptide for 24 h. The treated biomasses were washed and fixed with methanol for 15 min at -20 °C before staining with 0.1 % crystal violet. The stained biofilms were dissolved in 100 µl of 33 % acetic acid and the quantities of crystal violet stains were determined by measuring absorbance at 600 nm as an indicator of the remaining biomass after treatment. Untreated cells were used as negative control [indicating 100 % biofilm integrity] while the sterile medium was used as a positive control [indicating 0 % biofilm integrity].
S. enterica MRSA S. enterica MRSA S. enterica MRSA S. enterica MRSA S. enterica MRSA

[2] = tested on: S. enterica; experiment: Radial diffusion assay; assay type: cell-based, Salmonella enterica (ATCC, 14028); conditions: 5 µl of 500 µM per 3 mm well, 37 °C, mean ± SD
Text: The microbial strains used in this study were Bacillus subtilis (ATCC, 11774), Candida albicans (TIMM, 1768), Enterococcus faecalis (ATCC, 33186), Escherichia coli (ATCC, 11775), Klebsiella pneumoniae (ATCC, 13883), Methicillin-resistant Staphylococcus aureus (ATCC, BAA-41), Pseudomonas aeruginosa (ATCC, 10145), Salmonella enterica (ATCC, 14028), Serratia marcescens (ATCC, 13880), Staphylococcus aureus (ATCC, 25923) and Vibrio parahaemolyticus (ATCC, 17802). All microbial strains were cultivated overnight at 37 °C and 200 rpm, then subcultured and incubated for 3 h under the same incubation conditions to obtain the mid-logarithmic growth phase. The cultivated cells were washed twice with 10 mM Tris–HCl containing 5 mM D-glucose at pH 7.4 and suspended in the same buffer to be used in different assays, as previously described.
The antimicrobial activity spectra of the selected cryptides were screened against all the mentioned microbial pathogens, except V. parahaemolyticus, by radial diffusion assay as previously described, with slight modifications. […] The plates were then incubated for 18 h, and the antimicrobial activities were measured in the absolute unit (AU), as previously described. […]
plate. The plates were then incubated for 12 h at 37 °C and antimicrobial activities were measured in the term of absolute unit (A.U). […]

## RHCLRSKRPPNVCPH [AD4, cationic cryptide from P. vannamei precursor DN34505 (Pl-crustin 2), chemically synthesised]
[1]
  Biofilm eradication MRSA, 12.5 µM: 0%
  Biofilm eradication MRSA, 25 µM: 0.86 ± 3.1%
  Biofilm eradication MRSA, 50 µM: 11.53 ±1.4%
  Biofilm eradication MRSA, 100 µM: 27.05 ±1.3%
  Biofilm eradication MRSA, 200 µM: 35.86 ± 2.5% and 35.8%
[2]
  Antimicrobial activity (inhibition zone) S. enterica: 7.7 ± 1 A.U.
